According to US7202282B2, “Microemulsions for selective molecular separation” (University of Florida, priority 2002, dated 2007):

Experiment: selective molecular separation (partitioning) of local anesthetics by a microemulsion having an electron deficient aromatic ring
Format: physicochemical
Details: microemulsion with electron deficient ring oil, e.g. 1,3 di(trifluoromethyl) benzene
From the text: In one embodiment, the materials and/or methods of the subject invention can be used to separate drugs of the same class. A specific embodiment involves separating local anesthetics. […] This is accomplished by exploiting differences in electron density in π electron orbitals.
In these molecules, the π electron orbitals are aligned at right angles to the planar surface of the benzene rings. Differences in substitution by the side chain in cocaine or bupivacaine cause either electron depletion (δ^+) or enrichment (δ^−). Such characteristics can be used to selectively separate these molecules.
According to the subject invention, any oil or “mating” molecule with a benzene ring is acceptable in providing a microemulsion system, as long as the substitutions are electron withdrawing from the benzene ring into the side chains. In this case, the electron deficient ring is a component of a molecule (e.g., 1,3 di(trifluoromethyl) benzene) that, at room and physiological temperatures, is an oil (FIG. 3). Thus, these oil molecules can be used to construct the lipid core of a microemulsion or may be added as solutes into the lipid core of a microemulsion wherein another oil serves as the lipid core.

Structure (SMILES): CCCCN1CCCCC1C(=O)Nc1c(C)cccc1C (stereo not shown) [bupivacaine]
- partitioning into the microemulsion (molecular separation, FIG. 4): selectively partition
